Source: publication PMC12780140, “Structural basis of sodium ion-dependent carnitine transport by OCTN2” (Nature Communications, 2025)

Molecular target: T1, OCTN2 (hOCTN2) (Homo sapiens, UniProt O76082, Y211A)
T1 construct: gene SLC22A5; hOCTN2 mutant expressed in Xenopus laevis oocytes
T1 sequence (O76082 1-557 Y211A): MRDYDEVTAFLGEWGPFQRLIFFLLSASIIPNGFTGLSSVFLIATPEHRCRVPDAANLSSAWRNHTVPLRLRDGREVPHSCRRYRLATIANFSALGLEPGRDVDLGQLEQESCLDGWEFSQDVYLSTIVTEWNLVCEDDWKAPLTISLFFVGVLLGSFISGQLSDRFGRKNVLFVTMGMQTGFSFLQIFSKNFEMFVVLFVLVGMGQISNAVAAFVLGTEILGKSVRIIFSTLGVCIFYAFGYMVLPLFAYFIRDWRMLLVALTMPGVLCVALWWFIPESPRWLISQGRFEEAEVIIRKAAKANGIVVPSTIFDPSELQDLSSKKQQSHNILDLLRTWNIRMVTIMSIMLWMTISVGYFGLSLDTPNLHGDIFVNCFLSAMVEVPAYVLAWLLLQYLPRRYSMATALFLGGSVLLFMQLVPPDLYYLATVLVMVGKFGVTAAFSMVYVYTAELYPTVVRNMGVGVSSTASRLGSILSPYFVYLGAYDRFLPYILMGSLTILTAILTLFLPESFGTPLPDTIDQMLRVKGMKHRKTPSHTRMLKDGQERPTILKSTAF
Assay: two-electrode voltage clamp in oocytes, apparent KM (increased versus wildtype)
Format: cell-based

With `C[N+](C)(C)C[C@H](O)CC(=O)[O-]` [L-carnitine] the “two-electrode voltage clamp in oocytes, apparent KM (increased versus wildtype)” value was “Mutating this residue to an alanine shows a similar increase in carnitine KM as the mutants above (Fig. 2f)”.
